Data taken from a compilation of properties of binary mixtures (doi:10.1016/j.jct.2023.107038).

Assay: xn = mol fraction of the nth substance listed
Conditions: 96.7 kPa

OCC(F)(F)F + CC[n+]1ccn(C)c1.O=S(=O)([N-]S(=O)(=O)C(F)(F)F)C(F)(F)F
viscosity [mPa·s]
Conditions	293.15 K	298.15 K	303.15 K	308.15 K	313.15 K	318.15 K	323.15 K	328.15 K	333.15 K
x1 = 0.051	–	30.2	25.7	22	–	16.5	14.5	12.7	11.4
x1 = 0.099	32.5	27.4	23.4	20	17.6	15.2	–	11.8	10.7
x1 = 0.204	25.7	23.1	19.6	–	14.3	13.1	11.5	10.1	9.3
x1 = 0.303	–	17.7	15.3	13.5	11.8	10.3	9.4	8.4	7.6
x1 = 0.396	–	13.5	11.7	10.3	–	8.2	7.3	6.8	–
x1 = 0.599	8.3	7.3	–	5.8	5.2	–	4.3	3.92	3.59
x1 = 0.799	–	3.53	3.16	2.96	2.68	2.47	2.27	–	1.95
x1 = 1	2.01	1.8	1.59	–	1.26	1.1	1.01	0.93	–

CC[n+]1ccn(C)c1.O=S(=O)([N-]S(=O)(=O)C(F)(F)F)C(F)(F)F + OCC(F)(F)F
x2 = 0
Conditions	viscosity [mPa·s]
293.15 K	39.2
298.15 K	32.9
303.15 K	27.8
318.15 K	17.6
323.15 K	15.4
328.15 K	13.6
333.15 K	12.2

OCC(F)(F)F + CC(=O)[O-].CC[n+]1ccn(C)c1
viscosity [mPa·s]
Conditions	293.15 K	298.15 K	303.15 K	308.15 K	313.15 K	318.15 K	323.15 K	328.15 K	333.15 K
x1 = 0.048	157	–	–	67	53	42.2	34.3	28.4	23.7
x1 = 0.103	138	104	79	61	48.5	39.2	31.6	26.5	–
x1 = 0.204	–	75	59	–	37.7	30.6	25.6	21.4	18.2
x1 = 0.298	69	54	42.9	34.7	28.5	23.7	20	–	14.5
x1 = 0.402	46.1	–	–	24.2	21.1	17.6	–	12.9	11.3
x1 = 0.603	–	14.6	12.4	11	9.5	–	7.4	6.5	–
x1 = 0.801	6.2	5.5	4.85	4.32	–	3.54	–	2.94	2.69
x1 = 1	2.01	1.8	1.59	1.41	–	1.1	1.01	0.93	–

CC(=O)[O-].CC[n+]1ccn(C)c1 + OCC(F)(F)F
x2 = 0
Conditions	viscosity [mPa·s]
293.15 K	181
298.15 K	135
303.15 K	100
308.15 K	76
323.15 K	38.5
328.15 K	31.4
333.15 K	26
